Assay results from patent US12661409B2, “Target validation and profiling of the RNA targets of small molecules” (priority 2018, dated 2026).

Columns and labels:
[1] = system: mature miR-96; assay: RT-qPCR of mature miR-96 levels; type: cell-based; details: MDA-MB-231 TNBC cells; 2 complexed with Fe2+ (1 equivalent)
[2] = system: mature miR-96; details: triple negative breast cancer (TNBC) cells; cited from earlier work
[3] = target: pri-miR-96; assay: Microscale thermophoresis (MST) affinity for pri-miR-96; type: binding
[4] = system: MDA-MB-231 cells; details: TNBC cells; cited from earlier work
[5] = system: FOXO1 protein; details: TNBC cells; cited from earlier work
[6] = system: pri-miR-96; assay: RT-qPCR of pri-miR-96 levels; type: cell-based
[7] = target: DNA; assay: Microscale thermophoresis (MST) affinity for DNA; type: binding

Row | Compound | Effect on mature miR-96 levels [1] | Effect on production of mature miR-96 (earlier study) [2] | Kd [3] | Effect on apoptosis (earlier study) [4] | Effect on FOXO1 (earlier study) [5] | Effect on pri-miR-96 levels ([6]; MDA-MB-231 TNBC cells, 2 complexed with Fe2+ (1 equivalent)) | Competition of the pri-miR-96 cleavage caused by 2 ([6]; increasing concentrations of 1 (5 to 500 nM), constant 2 (500 nM), MDA-MB-231 cells) | Kd [7]
1 | Targaprimir-96 [Compound 1] | reduced | inhibited the production of mature miR-96 | 39 ± 18 nM | triggered apoptosis | de-repressed | increased | effectively competed off | 
2 | Cc1c(N)nc([C@H](CC(N)=O)NC[C@H](N)C(N)=O)nc1C(=O)N[C@H](C(=O)N[C@H](C)[C@@H](O)[C@H](C)C(=O)N[C@H](C(=O)NCCc1nc(-c2nc(C(=O)NCCCNCCCCN)cs2)cs1)[C@@H](C)O)[C@@H](O[C@@H]1O[C@@H](CO)[C@@H](O)[C@H](O)[C@@H]1O[C@@H]1O[C@H](CO)[C@@H](O)[C@H](OC(N)=O)[C@@H]1O)c1cnc[nH]1 [bleomycin A5] |  |  |  |  |  |  |  | ~1000 nM
